Reference: ChEMBL document CHEMBL1132808, “Solid-phase synthesis of di- and tripeptidic hydroxamic acids as inhibitors of procollagen C-proteinase” (Bioorg Med Chem Lett, 2000)
Values joined by “and” are separate entries in the source; they are usually repeats but may differ in a detail not shown here. Equal entries are not always repeated. Where a SMILES comes first, the peptide text is derived from it. [ ]: non-standard residue; d: D form. The star is where a group is joined. ξ: configuration not given here. ξW = NC(Cc1c[nH]c2ccccc12)C(=O)O; Cbz = O=C(OCc1ccccc1)*; ξT = CC(O)C(N)C(=O)O; NHOH = ON*

Biological target: T1, Bone morphogenetic protein 1 (Homo sapiens, UniProt P13497)
T1 sequence (P13497 whole entry): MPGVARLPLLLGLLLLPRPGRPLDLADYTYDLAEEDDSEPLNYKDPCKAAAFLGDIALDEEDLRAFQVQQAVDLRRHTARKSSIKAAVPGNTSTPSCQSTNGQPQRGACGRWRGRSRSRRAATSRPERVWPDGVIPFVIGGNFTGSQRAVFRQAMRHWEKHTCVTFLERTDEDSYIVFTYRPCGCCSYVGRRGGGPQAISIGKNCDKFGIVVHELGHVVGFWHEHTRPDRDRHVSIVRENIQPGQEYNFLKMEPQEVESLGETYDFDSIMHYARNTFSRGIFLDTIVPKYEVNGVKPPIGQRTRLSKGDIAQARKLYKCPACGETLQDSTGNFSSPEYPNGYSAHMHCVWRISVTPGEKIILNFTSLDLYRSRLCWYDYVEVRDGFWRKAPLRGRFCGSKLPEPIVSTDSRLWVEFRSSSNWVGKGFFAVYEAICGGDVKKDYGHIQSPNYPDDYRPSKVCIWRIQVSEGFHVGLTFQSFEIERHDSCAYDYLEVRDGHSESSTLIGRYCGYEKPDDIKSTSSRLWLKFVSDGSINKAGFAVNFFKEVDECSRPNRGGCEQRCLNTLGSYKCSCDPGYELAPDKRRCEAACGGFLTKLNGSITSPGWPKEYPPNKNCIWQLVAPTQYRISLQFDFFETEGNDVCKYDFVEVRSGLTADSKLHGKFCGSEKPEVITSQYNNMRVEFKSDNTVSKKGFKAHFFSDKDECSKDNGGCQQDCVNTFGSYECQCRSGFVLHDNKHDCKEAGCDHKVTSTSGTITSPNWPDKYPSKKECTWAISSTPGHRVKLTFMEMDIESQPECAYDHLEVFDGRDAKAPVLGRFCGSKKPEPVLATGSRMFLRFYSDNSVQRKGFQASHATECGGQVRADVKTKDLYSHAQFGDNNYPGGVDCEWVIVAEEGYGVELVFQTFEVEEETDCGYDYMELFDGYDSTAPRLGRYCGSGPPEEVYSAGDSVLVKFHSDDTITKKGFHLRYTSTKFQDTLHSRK
Assay: Inhibitory effect against Procollagen C-terminal proteinase

`CC[C@@H](C)[C@@H](NC(=O)OCc1ccccc1)C(=O)N[C@H](Cc1cscn1)C(=O)NO` (stereo in doubt; form 1) and `CC[C@@H](C)[C@@H](NC(=O)OCc1ccccc1Br)C(=O)N[C@H](Cc1cscn1)C(=O)NO` are within 1.5-fold of each other in IC50: 0.11 µM for the first, 0.078 µM for the second.

Compared with `CC[C@@H](C)[C@@H](NC(=O)OCc1ccccc1)C(=O)N[C@H](Cc1ccccn1)C(=O)NO`, `CC[C@@H](C)[C@@H](NC(=O)OCc1ccccc1)C(=O)N[C@H](Cc1cscn1)C(=O)NO` (stereo in doubt; form 2) is 2-fold lower in IC50: 0.22 µM for the first, 0.11 µM for the second.

Going from `CC[C@@H](C)[C@@H](NCN(Cc1ccc(F)cc1)C(=O)c1cccc(C)c1)C(=O)N[C@H](Cc1cscn1)C(=O)NO` to `CC[C@@H](C)[C@@H](NCN(Cc1ccc(F)cc1)C(=O)c1cccc(Cl)c1)C(=O)N[C@H](Cc1cscn1)C(=O)NO`, the IC50 falls from 0.11 µM to 0.053 µM (2.1-fold). The second is the more potent here.

Going from `CC[C@@H](C)[C@H](NC(=O)C(Cc1ccc(F)cc1)NC(=O)OCc1ccccc1)C(=O)N[C@@H](Cc1cscn1)C(=O)NO` (stereo not given in full) to `CC[C@@H](C)[C@H](NC(=O)C(Cc1ccccc1)NC(=O)OCc1ccccc1)C(=O)N[C@@H](Cc1cscn1)C(=O)NO` (stereo not given in full), the IC50 falls from 0.078 µM to 0.044 µM (1.8-fold). The second is the more potent here.

Going from `O=C(NC(Cc1c[nH]c2ccccc12)C(=O)NO)OCc1ccccc1` (stereo not given) to `CCCC(NC(=O)OCc1ccccc1)C(=O)N[C@H](Cc1c[nH]c2ccccc12)C(=O)NO` (stereo not given in full), the IC50 falls from 67 µM to 0.87 µM (77-fold). The second is the more potent here.

`CC[C@H](C)[C@H](NS(=O)(=O)c1cc(Cl)ccc1Cl)C(=O)N[C@@H](CNC(=O)OCc1ccccc1)C(=O)NO` and `CC[C@H](C)[C@H](NS(=O)(=O)c1cc(C)c(Cl)cc1C)C(=O)N[C@@H](CNC(=O)OCc1ccccc1)C(=O)NO` are within 1.5-fold of each other in IC50: 0.065 µM for the first, 0.067 µM for the second.

Compared with `CC[C@@H](C)[C@@H](NS(=O)(=O)c1cc(Cl)c(Cl)cc1Cl)C(=O)N[C@H](Cc1cscn1)C(=O)NO`, `CC[C@@H](C)[C@@H](NS(=O)(=O)c1cc(Cl)ccc1Cl)C(=O)N[C@H](Cc1cscn1)C(=O)NO` is 1.7-fold lower in IC50: 0.049 µM for the first, 0.029 µM for the second. The second is the more potent here.

`CC[C@@H](C)[C@@H](NC(=O)OCc1ccccc1)C(=O)N[C@H](Cc1cnc[nH]1)C(=O)NO` and `CC[C@@H](C)[C@@H](NC(=O)OCc1ccccc1)C(=O)N[C@H](Cc1ccc(Br)s1)C(=O)NO` are within 1.5-fold of each other in IC50: 0.25 µM for the first, 0.21 µM for the second.

Going from `O=C(O)CCC(NC(=O)OCc1ccccc1)C(=O)N[C@H](Cc1c[nH]c2ccccc12)C(=O)NO` (stereo not given in full) to `CC(O)C(NC(=O)OCc1ccccc1)C(=O)N[C@@H](Cc1c[nH]c2ccccc12)C(=O)NO` (stereo not given in full) (Cbz-[ξT]-Trp-{NHOH}), the IC50 rises from 3 µM to 15 µM (5-fold). The first is the more potent here.

First: CC[C@@H](C)[C@@H](NC(=O)OCc1ccc(Cl)c(Cl)c1)C(=O)N[C@H](Cc1cscn1)C(=O)NO
Second: CC[C@@H](C)[C@@H](NC(=O)OCc1cc(Cl)cc(Cl)c1)C(=O)N[C@H](Cc1cscn1)C(=O)NO
The IC50 of the first is 2.1-fold lower: 0.073 µM for the first, 0.15 µM for the second. The first is the more potent here.

Going from `CC[C@H](C)[C@@H](NC(=O)OCc1ccccc1)C(=O)N[C@H](Cc1c[nH]c2ccccc12)C(=O)NO` to `CC(C)C(NC(=O)OCc1ccccc1)C(=O)N[C@H](Cc1c[nH]c2ccccc12)C(=O)NO` (stereo not given in full), the IC50 rises from 0.73 µM to 1.9 µM (2.6-fold). The first is the more potent here.

`CC[C@@H](C)[C@@H](NC(=O)OCc1ccccc1)C(=O)NC(Cc1ccccc1Cl)C(=O)NO` (stereo not given in full) and `CC[C@@H](C)[C@@H](NC(=O)OCc1ccccc1)C(=O)N[C@H](Cc1ccc(Br)cc1)C(=O)NO` are within 1.5-fold of each other in IC50: 0.19 µM for the first, 0.2 µM for the second.

First: CC(=O)N[C@@H](Cc1ccc(O)cc1)C(=O)N[C@@H](Cc1ccc(O)cc1)C(=O)NCC(=O)NO (Ac-Tyr-Tyr-Gly-{NHOH})
Second: CC(=O)N[C@@H](Cc1ccc(O)cc1)C(=O)NCC(=O)NO
The IC50 of the first is 4.3-fold lower: 65 µM for the first, 280 µM for the second. The first is the more potent here.

`CC[C@@H](C)[C@@H](NCN(Cc1ccc(F)cc1)C(=O)c1ccc(Br)cc1)C(=O)N[C@H](Cc1cscn1)C(=O)NO` and `CC[C@@H](C)[C@@H](NCN(Cc1ccc(F)cc1)C(=O)c1ccc(F)cc1)C(=O)N[C@H](Cc1cscn1)C(=O)NO` are within 1.5-fold of each other in IC50: 0.089 µM for the first, 0.09 µM for the second.

Going from `CC[C@@H](C)[C@@H](NCN(Cc1ccc(F)cc1)C(=O)c1ccc(C(C)(C)C)cc1)C(=O)N[C@H](Cc1cscn1)C(=O)NO` to `CC[C@@H](C)[C@@H](NCN(Cc1ccc(F)cc1)C(=O)c1ccc(Cl)cc1)C(=O)N[C@H](Cc1cscn1)C(=O)NO`, the IC50 falls from 0.14 µM to 0.05 µM (2.8-fold). The second is the more potent here.

Compared with `CC[C@H](C)[C@H](NS(=O)(=O)c1ccc(Br)c(Br)c1)C(=O)N[C@@H](CNC(=O)OCc1ccccc1)C(=O)NO`, `CC[C@H](C)[C@H](NS(=O)(=O)c1cc(Br)c(Br)s1)C(=O)N[C@@H](CNC(=O)OCc1ccccc1)C(=O)NO` is 2-fold higher in IC50: 0.026 µM for the first, 0.052 µM for the second.

Going from `CC[C@@H](C)[C@H](NC(=O)C(CCSC)NC(=O)OCc1ccccc1)C(=O)N[C@@H](Cc1cscn1)C(=O)NO` (stereo not given in full) to `CC[C@@H](C)[C@H](NC(=O)C(CC(C)C)NC(=O)OCc1ccccc1)C(=O)N[C@@H](Cc1cscn1)C(=O)NO` (stereo not given in full), the IC50 rises from 0.043 µM to 0.11 µM (2.6-fold).

First: CC[C@@H](C)[C@@H](NC(=O)OCc1ccccc1)C(=O)NC(Cc1ccc(OC(C)(C)C)cc1)C(=O)NO (stereo not given in full)
Second: CC[C@@H](C)[C@@H](NC(=O)OCc1ccccc1)C(=O)NC(Cc1ccc(-c2ccccc2)cc1)C(=O)NO (stereo not given in full)
The IC50 of the first is 1.5-fold lower: 0.13 µM for the first, 0.2 µM for the second.

`CC[C@@H](C)[C@@H](NS(=O)(=O)C1=CCC(C)(Cl)C=C1C)C(=O)N[C@H](Cc1cscn1)C(=O)NO` (stereo not given in full) and `CC[C@H](C)[C@H](NS(=O)(=O)c1cc(Br)c(Br)s1)C(=O)NC(Cc1cscn1)C(=O)NO` (stereo not given in full) are within 1.5-fold of each other in IC50: 0.043 µM for the first, 0.032 µM for the second.

First: CC[C@@H](C)[C@@H](NS(=O)(=O)c1ccc(Br)c(Br)c1)C(=O)N[C@H](Cc1cscn1)C(=O)NO
Second: CC[C@@H](C)[C@@H](NC(=O)OCc1cccc(C(F)(F)F)c1)C(=O)N[C@H](Cc1cscn1)C(=O)NO
The IC50 of the first is 3-fold lower: 0.03 µM for the first, 0.09 µM for the second. The first is the more potent here.

`CC[C@@H](C)[C@H](NC(=O)C(COCc1ccccc1)NC(=O)OCc1ccccc1)C(=O)N[C@@H](Cc1cscn1)C(=O)NO` (stereo not given in full) and `CC[C@@H](C)[C@H](NC(=O)C(Cc1c[nH]c2ccccc12)NC(=O)OCc1ccccc1)C(=O)N[C@@H](Cc1cscn1)C(=O)NO` (stereo not given in full) are within 1.5-fold of each other in IC50: 0.078 µM for the first, 0.067 µM for the second.

First: CNC(=O)[C@H](CCC(N)=O)NC(=O)[C@H](CC(=O)O)CC(=O)NO
Second: CNC(=O)C1CCCN1C(=O)[C@H](CCC(N)=O)NC(=O)[C@H](CC(=O)O)CC(=O)NO (stereo not given in full)
The IC50 of the first is 3.1-fold higher: 68 µM for the first, 22 µM for the second.

`O=C(N[C@H](Cc1ccc(O)cc1)C(=O)N[C@@H](Cc1c[nH]c2ccccc12)C(=O)NO)OCc1ccccc1` and `O=C(N[C@@H](Cc1ccccc1)C(=O)N[C@@H](Cc1c[nH]c2ccccc12)C(=O)NO)OCc1ccccc1` are within 1.5-fold of each other in IC50: 20 µM for the first, 17 µM for the second.

First: O=C(NC(C(=O)N[C@H](Cc1c[nH]c2ccccc12)C(=O)NO)c1ccccc1)OCc1ccccc1 (stereo not given in full)
Second: O=C(N[C@H](Cc1ccccc1)C(=O)N[C@@H](Cc1c[nH]c2ccccc12)C(=O)NO)OCc1ccccc1
The IC50 of the first is 15-fold lower: 1.2 µM for the first, 18 µM for the second. The first is the more potent here.

`CC[C@H](C)[C@@H](NC(=O)Nc1cc(Cl)cc(Cl)c1)C(=O)N[C@H](Cc1cc2ccccc2[nH]1)C(=O)NO` and `CC[C@H](C)[C@@H](NC(=O)Nc1ccccc1Cl)C(=O)N[C@H](Cc1cc2ccccc2[nH]1)C(=O)NO` are within 1.5-fold of each other in IC50: 5.1 µM for the first, 5 µM for the second.

Compared with `CC[C@H](C)[C@@H](Nc1cccc(C(F)(F)F)c1)C(=O)N[C@H](Cc1cc2ccccc2[nH]1)C(=O)NO`, `CC[C@H](C)[C@@H](Nc1ccc(Cl)c(Cl)c1)C(=O)N[C@H](Cc1cc2ccccc2[nH]1)C(=O)NO` is 3.7-fold lower in IC50: 2.8 µM for the first, 0.75 µM for the second.

Compared with `CC[C@@H](C)[C@@H](NC(=O)OCc1ccccc1)C(=O)NCC(NCc1ccccc1)C(=O)NO` (stereo not given in full), `CC[C@@H](C)[C@@H](NC(=O)OCc1ccccc1)C(=O)NCC(NC(=O)OCc1ccccc1)C(=O)NO` (stereo not given in full) is 1.5-fold lower in IC50: 0.094 µM for the first, 0.061 µM for the second.

`O=C(NC(Cc1c[nH]c2ccccc12)C(=O)N[C@@H](Cc1c[nH]c2ccccc12)C(=O)NO)OCc1ccccc1` (stereo not given in full) (Cbz-[ξW]-Trp-{NHOH}) and `O=C(CCCNC(=O)OCc1ccccc1)N[C@@H](Cc1c[nH]c2ccccc12)C(=O)NO` are the same in IC50: 19 µM for the first, 19 µM for the second.

Going from `CC[C@H](C)[C@@H](NC(=O)Nc1ccccc1[N+](=O)[O-])C(=O)N[C@H](Cc1cc2ccccc2[nH]1)C(=O)NO` to `CC[C@H](C)[C@@H](NC(=O)NCCc1ccccc1)C(=O)N[C@H](Cc1cc2ccccc2[nH]1)C(=O)NO`, the IC50 rises from 2.1 µM to 3.6 µM (1.7-fold). The first is the more potent here.

`CC(=O)N[C@@H](CCCNC(=N)N)C(=O)N[C@@H](C)C(=O)NO` (Ac-Arg-Ala-{NHOH}) was tested, and the IC50 was greater than 800 µM.

`CC[C@@H](C)[C@@H](NC(=O)OCc1ccccc1)C(=O)N[C@H](Cc1ccc([N+](=O)[O-])cc1)C(=O)NO` was tested, and the IC50 was 0.2 µM and 0.22 µM.
